The values below come from PubChem BioAssay AID248 (DTP/NCI, 2004).

In the experiment the test system is L1210 leukemia ip in BDF1 mice, survival T/C. Put plainly: NCI In Vivo Anticancer Drug Screen. Data for tumor model L1210 Leukemia (intraperitoneal) in B6D2F1 (BDF1) mice. The following applies: endpoint: mean survival time, higher = longer survival. The procedure, abridged: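 Tumor cells were implanted, animals were treated, and survival was followed. The result divides the treated measurement by the vehicle-control measurement.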

Setting [1] is: dose: 100.0 mg/kg/injection, schedule: Q04DX003 (ip), vehicle: Klucel (hydroxypropylcellulose) (HPC).
[2] abbreviates: dose: 200.0 mg/kg/injection, schedule: Q04DX003 (ip), vehicle: Klucel (hydroxypropylcellulose) (HPC).
The mark [3] stands for this setting: dose: 400.0 mg/kg/injection, schedule: Q04DX003 (ip), vehicle: Klucel (hydroxypropylcellulose) (HPC).
Setting [4] is: dose: 100.0 mg/kg/injection, schedule: Q01DX001 (ip), vehicle: carboxymethylcellulose (CMC).
The mark [5] stands for this setting: dose: 200.0 mg/kg/injection, schedule: Q01DX001 (ip), vehicle: carboxymethylcellulose (CMC).
Where [6] appears, read: dose: 400.0 mg/kg/injection, schedule: Q01DX001 (ip), vehicle: carboxymethylcellulose (CMC).
Where [7] appears, read: dose: 25.0 mg/kg/injection, schedule: Q01DX009 (ip), vehicle: Klucel (hydroxypropylcellulose) (HPC).
Setting [8] is: dose: 50.0 mg/kg/injection, schedule: Q01DX009 (ip), vehicle: Klucel (hydroxypropylcellulose) (HPC).
Setting [9] is: dose: 100.0 mg/kg/injection, schedule: Q01DX009 (ip), vehicle: Klucel (hydroxypropylcellulose) (HPC).
[10] abbreviates: dose: 400.0 mg/kg/injection, schedule: Q01DX009 (ip), vehicle: Klucel (hydroxypropylcellulose) (HPC).
Where [11] appears, read: dose: 100.0 mg/kg/injection, schedule: Q04DX003 (ip), vehicle: saline with Tween-80.
Where [12] appears, read: dose: 200.0 mg/kg/injection, schedule: Q04DX003 (ip), vehicle: saline with Tween-80.
Where [13] appears, read: dose: 400.0 mg/kg/injection, schedule: Q04DX003 (ip), vehicle: saline with Tween-80.
[14] abbreviates: dose: 100.0 mg/kg/injection, schedule: Q01DX001 (ip), vehicle: saline.
Setting [15] is: dose: 200.0 mg/kg/injection, schedule: Q01DX009 (ip), vehicle: Klucel (hydroxypropylcellulose) (HPC).

Values joined by “and” are separate entries in the source; they are usually repeats but may differ in a detail not shown here. Identical values can stand only once. Toxic doses and inconclusive results are not listed.

Take `S=C(Cc1ccc2ccccc2c1)N1CCOCC1`: the T/C reads like this: (dose: 25.0 mg/kg/injection, schedule: Q01DX009 (ip), vehicle: saline sonified) 94 % of control; (dose: 50.0 mg/kg/injection, schedule: Q01DX009 (ip), vehicle: saline sonified) 100 % of control; (dose: 100.0 mg/kg/injection, schedule: Q01DX001 (ip), vehicle: saline with Tween-80) 105 % of control; (dose: 100.0 mg/kg/injection, schedule: Q01DX009 (ip), vehicle: saline sonified) 96 % of control.
As to `Nc1nc(N)c2cc(CNc3ccc(C(=O)NC(C(=O)O)C(=O)O)cc3)ccc2n1`, the T/C is 122 % of control (dose: 0.06 mg/kg/injection, schedule: Q01DX001 (ip), vehicle: saline); 123 % of control (dose: 0.06 mg/kg/injection, schedule: Q01DX015 (ip), vehicle: carboxymethylcellulose (CMC)); 105 % of control (dose: 0.25 mg/kg/injection, schedule: Q01DX015 (ip), vehicle: carboxymethylcellulose (CMC)); 157 % of control and 173 % of control (dose: 5.0 mg/kg/injection, schedule: Q01DX001 (ip), vehicle: carboxymethylcellulose (CMC)); 91 % of control (dose: 11.25 mg/kg/injection, schedule: Q01DX001 (ip), vehicle: carboxymethylcellulose (CMC)); 89 % of control (dose: 20.0 mg/kg/injection, schedule: Q01DX001 (ip), vehicle: carboxymethylcellulose (CMC)).
Turning to `CC(=O)CC(=O)Nc1nc2ccccc2s1`, the T/C is 92 % of control under setting [1], 103 % of control under setting [2] and 97 % of control under setting [3].
Consider `CCN(CC)Cc1cc(Nc2c3ccccc3nc3cc(Cl)ccc23)ccc1O`, for which the T/C was 101 % of control (dose: 12.5 mg/kg/injection, schedule: Q01DX009 (ip), vehicle: saline); 98 % of control (dose: 25.0 mg/kg/injection, schedule: Q01DX009 (ip), vehicle: saline); 113 % of control (dose: 30.0 mg/kg/injection, schedule: Q01DX Z (ip), vehicle: methylcellulose (MC)); 101 % of control (dose: 30.0 mg/kg/injection, schedule: Q01DX Z (ip), vehicle: saline); 100 % of control (dose: 45.0 mg/kg/injection, schedule: Q01DX Z (ip), vehicle: methylcellulose (MC)); 109 % of control (dose: 45.0 mg/kg/injection, schedule: Q01DX Z (ip), vehicle: saline). Also, the T/C is 102 % of control (dose: 50.0 mg/kg/injection, schedule: Q01DX001 (ip), vehicle: carboxymethylcellulose (CMC)); 103 % of control (dose: 50.0 mg/kg/injection, schedule: Q01DX009 (ip), vehicle: saline); 101 % of control (dose: 67.0 mg/kg/injection, schedule: Q01DX Z (ip), vehicle: methylcellulose (MC)); 107 % of control (dose: 67.0 mg/kg/injection, schedule: Q01DX Z (ip), vehicle: saline); 102 % of control under setting [4]; 103 % of control (dose: 100.0 mg/kg/injection, schedule: Q01DX Z (ip), vehicle: methylcellulose (MC)). For the same compound, the T/C (dose: 100.0 mg/kg/injection, schedule: Q04DX003 (ip), vehicle: saline) is 91 % of control; the T/C under setting [5] was 105 % of control; the T/C under setting [6] is 102 % of control.
On to `CC(=O)N(C)N=Nc1ccc(C)cc1`, for which the T/C is 116 % of control under setting [7]; 101 % of control (dose: 25.0 mg/kg/injection, schedule: Q04DX003 (ip), vehicle: other); 110 % of control under setting [8]; 106 % of control (dose: 50.0 mg/kg/injection, schedule: Q04DX003 (ip), vehicle: other); 102 % of control and 108 % of control under setting [9]; 118 % of control (dose: 100.0 mg/kg/injection, schedule: Q04DX003 (ip), vehicle: other). For the same compound, the T/C (dose: 200.0 mg/kg/injection, schedule: Q04DX003 (ip), vehicle: other) is 123 % of control; the T/C under setting [10] is 105 % of control and 123 % of control.
On to `O=C(N=Nc1c(O)[nH]c2ccccc12)c1ccccc1[N+](=O)[O-]`, for which the T/C runs as follows: under setting [4], 87 % of control; under setting [5], 90 % of control; under setting [6], 96 % of control.
`NNC(=O)C1C2C=CC(C2)C1C(=O)NN` (centres undefined): the T/C reads like this: under setting [11], 103 % of control; under setting [12], 91 % of control; under setting [13], 100 % of control.
For the compound `COc1ccc(C(C#N)N(C)C)cc1OC` (centres undefined), the T/C runs as follows: (dose: 50.0 mg/kg/injection, schedule: Q01DX001 (ip), vehicle: saline) 100 % of control; under setting [14], 100 % of control.
In the case of `COc1ccc(-c2cc(=O)c3c(O)c(OC)c(O)cc3o2)cc1`, the T/C reads like this: (dose: 20.0 mg/kg/injection, schedule: Q01DX Z (ip), vehicle: saline) 101 % of control; (dose: 40.0 mg/kg/injection, schedule: Q01DX Z (ip), vehicle: saline) 108 % of control; (dose: 80.0 mg/kg/injection, schedule: Q01DX Z (ip), vehicle: saline) 95 % of control.
Consider `C[As](C)N`, for which the T/C was 102 % of control (dose: 10.0 mg/kg/injection, schedule: Q01DX001 (ip), vehicle: saline); 93 % of control (dose: 15.0 mg/kg/injection, schedule: Q01DX001 (ip), vehicle: saline); 120 % of control (dose: 20.0 mg/kg/injection, schedule: Q01DX001 (ip), vehicle: saline); 91 % of control (dose: 30.0 mg/kg/injection, schedule: Q01DX001 (ip), vehicle: saline); 90 % of control (dose: 60.0 mg/kg/injection, schedule: Q01DX001 (ip), vehicle: saline).
`Cc1ccc(NC(c2cc(Br)ccc2O)P(=O)(c2ccccc2)c2ccccc2)c([N+](=O)[O-])c1` (centres undefined): the T/C under setting [9] is 93 % of control, the T/C under setting [15] is 96 % of control and the T/C under setting [10] is 96 % of control.
With `CCOC(=O)NP(=O)(N1CC1(C)C)N1CC1(C)C` (centres undefined), the T/C (dose: 62.5 mg/kg/injection, schedule: Q01DX010 (ip), vehicle: saline) is 115 % of control and 120 % of control; the T/C (dose: 125.0 mg/kg/injection, schedule: Q01DX010 (ip), vehicle: saline) was 117 % of control; the T/C (dose: 250.0 mg/kg/injection, schedule: Q01DX010 (ip), vehicle: saline) is 151 % of control and 157 % of control.
Regarding `Cc1c(C)n(C2OC(CO)C(O)C2O)c(=O)[nH]c1=O` (centres undefined), the T/C is 96 % of control under setting [14]; 108 % of control (dose: 200.0 mg/kg/injection, schedule: Q01DX001 (ip), vehicle: saline); 93 % of control (dose: 400.0 mg/kg/injection, schedule: Q01DX001 (ip), vehicle: saline).
Turning to `O=C1c2ccccc2C2C(=O)c3ccccc3C12` (centres undefined), the T/C is, setting by setting: under setting [11], 98 % of control; under setting [12], 96 % of control; under setting [13], 95 % of control.
`Oc1cc(N2CC2)c(O)cc1N1CC1`: the T/C is 154 % of control (dose: 0.3 mg/kg/injection, schedule: Q01DX009 (ip), vehicle: saline) and 118 % of control (dose: 0.5 mg/kg/injection, schedule: Q01DX009 (ip), vehicle: saline).
Regarding `CC(=O)Nc1ccccc1I`, the T/C was 104 % of control under setting [9], 96 % of control under setting [15] and 95 % of control under setting [10].
Turning to `CCCC(C)C(=O)Nc1cccc(OC(=O)NC(C)C)c1` (centres undefined), the T/C is, setting by setting: under setting [11], 89 % of control; under setting [12], 87 % of control; under setting [13], 92 % of control.
In the case of `N#Cc1c(Br)n(C2OC(CO)C(O)C2O)c2ncncc12` (centres undefined), the T/C reads like this: (dose: 100.0 mg/kg/injection, schedule: Q01DX005 (ip), vehicle: saline) 114 % of control; (dose: 200.0 mg/kg/injection, schedule: Q01DX005 (ip), vehicle: saline) 114 % of control.
With `O=C1Nc2ccc(Cl)cc2C(c2ccccc2)=NC1O` (centres undefined), the T/C is 103 % of control under setting [7]; 98 % of control (dose: 25.0 mg/kg/injection, schedule: Q04DX003 (ip), vehicle: Klucel (hydroxypropylcellulose) (HPC)); 101 % of control under setting [8]; 104 % of control (dose: 50.0 mg/kg/injection, schedule: Q04DX003 (ip), vehicle: Klucel (hydroxypropylcellulose) (HPC)); 98 % of control under setting [9]; 104 % of control under setting [1]. Also, the T/C is 107 % of control under setting [15], 114 % of control under setting [2], 91 % of control under setting [10] and 111 % of control under setting [3].
